Key:
[1] = system: myocardial infarction induced by LAD occlusion in rats; experiment: Inhibition of myocardial infarction size induced by 60 minutes occlusion of the left anterior descending coronary artery in rats (experimental setup 5); type: in vivo, rat; settings: for dose at which the maximal inhibitory effect on infarction size is achieved: 200 and 1000 μg/kg tested; for effect on myocardial infarction size (in contrast to / compared to a-MSH) / myocardial infarction size, necrotic area as % of area of risk: 3 hours after LAD-reperfusion
Experimental: Inhibition of Myocardial Infarction Size, Induced by 60 Minutes Occlusion of the Left Anterior Descending Coronary Artery in Rats.
Barrier-bred and specific pathogen-free female Wistar rats (250 g) are obtained from Charles River, Hannover, Germany. The animals are housed in a temperature (22-24° C.) and moisture (40-70%) controlled room with a 12-hour light-dark cycle (light on from 6:00 A.M. to 6:00 P.M.). All animals are given free access to tap water and a pelleted rat diet containing approximately 140 mmol/kg of sodium, 275 mmol/kg potassium and 23% protein (Altromin catalogue no. 1310, Altromin International, Lage, Germany). […] One week later the Rats are anaesthetized in an inhalation chamber with 4% isoflurane in O2. After insertion of an endotracheal tube the animal is artificially ventilated with 1.0% isoflurane in O2 using af Hugo Basile Rodent ventilator. Tidal volume is 8-10 ml/kg b.w. and respiratory rate 75 […], which maintains arterial pH between 7.35 and 7.45. During surgery the animal is placed on a heated table that maintains rectal temperature at 37-38° C. Standard ECG (second lead) is measured using a Hugo Sachs ECG Coupler and collected on line at 4,000 Hz in PowerLab. After parasternal thoracotomy and opening of the pericardium the left anterior descending coronary artery (LAD) is localized visually. An atraumatic 6-0 silk suture with an occluder that allows reopening of the ligature is placed around the LAD between the pulmonary trunk and the lower right end of the left auricle. After 10 minutes the left anterior descending coronary artery (LAD) is occluded. Successful occluding is confirmed by alterations in ECG (ST-segment elevation and increase in R-wave amplitude) and by fall in MAP. Reperfusion is made after 60 minutes by opening the occluder. Control rats are sham-operated.
The rats are subjected to one of the following i.v treatments: • Vehicle: 0.5 ml 150 mM NaCl. • a-MSH: 200 μg or 1000 μg a-melanocyte stimulating hormone/kg b.w. in 0.5 ml 150 mM NaCl.
Test compound 200 μg or 1000 μg test compound/kg b.w. in 0.5 ml 150 mM NaCl.
Treatment is given 5 minutes prior to reperfusion.
The rats are kept anaesthetized after the ischemia/reperfusion and re-occluding of the LAD is performed after three hours reperfusion. During this period ECG and MAP are measured continuously. Then Evans Blue dye (1 ml; 2% w/v) is administered i.v. to determine the size of the ischemic area. The heart is removed and cut into horizontal slices to determine the size of the ischemic area and to separate the ischemic myocardium from the non-ischemic myocardium. The ischemic area is isolated and incubated in a 0.5% triphenyltetrazolium chloride solution for 10 minutes at 37° C. The size of the necrotic tissue is then measured by used of a computerized image program. An additional setup of animals are treated with buprenorphine post-surgical and returned to there cages for measurement of left ventricular end diastolic pressure (LVEDP) two weeks later in order to evaluate the effect of the pharmacological treatment on the development of congestive heart failure. LVEDP is measured using a 2F microtip catheters inserted into the left ventricle via the right carotid artery. Isoflurane concentration is adjusted to stabilize mean arterial pressure (MAP) at 85-90 mmHg.
(§1) Data are presented as mean±S.E. Within group comparisons are analysed with Student's paired t test. Between group comparisons are performed by one way analysis of variance followed by Fishers Least Significant Difference test. Differences are considered significant at the 0.05 level.

[2] = system: cisplatin induced renal failure in rats; experiment: Inhibition of cisplatin induced renal failure (experimental setup 7); type: in vivo, rat; settings: for effect on cisplatin induced fall in GFR / effect on cisplatin induced hypomagnesemia: rats treated with cisplatin; for Plasma Mg: rats treated with cisplatin 5.0 mg/kg ip, 200 μg/kg iv test compound
Experimental: Inhibition of Cisplatin Induced Renal Failure
Rats, which previously have been instrumented with a chronic venous catheter, are placed in metabolic cages and after a period of acclimation to the metabolic cages the rats are treated with an intreperitoneal cisplatin injection 5.0 mg/kg bw in 0.5 ml 150 mM NaCl or vehicle (0.5 ml 150 mM NaCl). Five days later the rats are then returned to metabolic cages, and daily 24 h urine output and water intake are measured and collected for the next five days. All rats are then anesthetized in halothan/N2O and an arterial blood sample collected in prechilled EDTA coated vials. The blood samples are collected in a prechilled test tube with 0.5 mM EDTA, pH 7.4, and 20×10^6 IU/ml aprotinin. After centrifugation at 4° C., plasma samples are transferred to pre-chilled test tubes and stored at −20° C. for later measurements of creatinine and Magnesium (Mg). In addition to this creatinine is also measured in the urine collected in the last 24 hours period prior to the blood collection. […] Measurement of creatinine in urine and plasma is performed by use of the clinical chemistry systems VITROS 950 (Ortho-Clinical Diagnostics Inc., Johnson & Johnson, NJ) and Roche Hitachi Modular (Roche Diagnostics, Mannheim, Germany).
The rats are subjected to one of the following i.v treatments: • Vehicle: 0.5 ml 150 mM NaCl • a-MSH: 200 μg o-melanocyte stimulating hormone/kg b.w. in 0.5 ml 150 mM NaCl. • Test compound: 200 μg test compound/kg b.w. in 0.5 ml 150 mM NaCl. Treatment is given 5 minutes prior to reperfusion of the kidney and subsequently 6 and 24 hours later. Statistics
as §1

[3] = 14 days after 60 minutes occlusion of LAD

Substance | reduction in infarction size compared to Vehicle treated rats ([1]; 200 μg/kg body weight) | reduction in infarction size compared to Vehicle treated rats ([1]; 1000 μg/kg body weight) | dose at which the maximal inhibitory effect on infarction size is achieved [1] | effect on myocardial infarction size (in contrast to / compared to a-MSH) [1] | myocardial infarction size, necrotic area as % of area of risk ([1]; 200 μg/kg body weight iv) | myocardial infarction size, necrotic area as % of area of risk ([1]; 1000 μg/kg body weight iv) | effect on myocardial infarction size (in contrast to / compared to a-MSH) ([1]; listed as SEQ ID NO: 1) | effect on LVEDP / post-infarctional congestive heart failure [1, 3] | left ventricular end diastolic pressure (LVEDP) ([1]; 14 days after 60 minutes occlusion of LAD, 200 μg/kg bw) | effect on cisplatin induced fall in GFR [2] | effect on cisplatin induced hypomagnesemia [2] | Plasma Mg [2] | effect on myocardial infarction size (in contrast to / compared to a-MSH) ([1]; listed as SEQ ID NO: 5) | effect on myocardial infarction size (in contrast to / compared to a-MSH) ([1]; listed as SEQ ID NO: 9)
Ac-Lys-Lys-Lys-Lys-Lys-Lys-Ser-Tyr-Ser-Met-Glu-His-Phe-Arg-Trp-Gly-Lys-Pro-Val-NH2 (Ac-KKKKKKSYSMEHFRWGKPV-NH2) [a-MSH analogue #1] | ~30% | ~30% | 200 μg/kg body weight | reduces the myocardial infarction size | 35.7±5.6 % of area of risk | 35.0±4.4 % of area of risk | reduced the infarction size to a higher degree | marked reduction in LVEDP | 10.4±2.9 mmHg | prevents the cisplatin induced fall in GFR | prevents cisplatin induced hypomagnesemia | 0.84 ± 0.04 mM |  | 
Ac-Lys-Lys-Lys-Lys-Lys-Lys-Ser-Tyr-Ser-Nle-Glu-His-(D-Phe)-Arg-Trp-Gly-Lys-Pro-Val-NH2 (KKKKKKSYSXEHFRWGKPV; N-acetyl, Nle, D-Phe, C-amide) [a-MSH analogue #2] | ~27% |  | 200 μg/kg body weight | reduces the myocardial infarction size | 37.4±5.1 % of area of risk |  |  | marked reduction in LVEDP |  | prevents cisplatin induced hypomagnesemia as well as the cisplatin induced fall in GFR | prevents cisplatin induced hypomagnesemia |  | reduced the infarction size to a higher degree | 
Ac-Lys-Lys-Lys-Lys-Lys-Lys-Ser-Tyr-Ser-Nle-Glu-His-D-Nal-Arg-Trp-Gly-Lys-Pro-Val-NH2 (KKKKKKSYSXEHXRWGKPV; not fully specified; N-acetyl, Nle, D-Nal, C-amide) [a-MSH analogue #3] | ~24% |  | 200 μg/kg body weight | reduces the myocardial infarction size | 39.0±3.4 % of area of risk |  |  | marked reduction in LVEDP |  |  |  |  |  | reduced the infarction size to a higher degree
Ser-Tyr-Ser-Met-Glu-His-Phe-Arg-Trp-Gly-Lys-Pro-Val [a-MSH, reference compound] |  |  |  |  |  |  |  |  |  |  |  | 0.37 ± 0.04 mM |  | 
